How the values were obtained:
[1] = test system: recent onset symptomatic AF/AFL; assay: Randomised double-blind single oral dose study: conversion of recent onset symptomatic AF/AFL to sinus rhythm (Example 1); format: in vivo, human; conditions: for Conversion of Atrial Flutter, %: pure atrial flutter subjects (N 4), any time within 24 hours
Experimental: (§1) The vanoxerine or identical appearing placebo was randomly assigned and administered in a double-blinded fashion.
Inclusion criteria included: male or female over the age of […], symptomatic AF/AFL for more than 3 hours and less than 7 days, as dated by symptoms, and adherence to local clinical standards or the […] practice guidelines for AF/AFL regarding thromboembolic event prevention and treatment
Exclusion Criteria Included: • (a) Systolic blood pressure <100 mmHG, HR <50 bpm • (b) Average QTcF >440 ms, […] >140 ms • (c) Paced atrial or ventricular rhythm • (d) Serum potassium <3.5 meq/L • (e) History of receiving another Class 1 or Class III antiarrhythmic drug within 3 days of randomization, amiodarone (oral or IV) within 3 months • (f) Acute coronary syndrome within 30 days prior to randomization • (g) Aortic stenosis with AVA ≦1.0 cm^2 • (h) Mitral stenosis with MVA of <1.5 cm^2 • (i) Acute pulmonary edema/embolism • (j) Stroke within 30 days or TIA within 48 hours • (k) Untreated hyperthyroidism • (l) Acute pericarditis • (m) Postoperative AF/AFL within 7 days • (n) History of failed Direct current cardioversion • (o) History of polymorphic ventricular tachycardia (e.g. Torsade de Pointes) • (p) History or family history of long QT syndrome • (q) History of ventricular tachycardia requiring drug or device therapy • (r) History of NYHA Heart Failure Class III or IV or recent (within 1 month) onset of heart failure not related to rapid ventricular response AF • (s) Ejection fraction of 35% or less • (t) History of prior ablation therapy for cardiac arrhythmias
4-Hour Efficacy Endpoints: • (a) the proportion of subjects who convert to sinus rhythm for at least 1 minute through 4 hours after start of study drug. • (b) the proportion of subjects in sinus rhythm at 4 hours after start of study drug • (c) time to restoration of sinus rhythm within 4 hours
24-Hour Efficacy Endpoints • (a) the proportion of subjects who convert to sinus rhythm for at least 1 minute through 24 hours after start of study drug. • (b) the proportion of subjects in sinus rhythm at 24 hours after start of study drug • (c) time to restoration of sinus rhythm within 24 hours
Statistical Considerations: • (a) Placebo subjects in all dose cohorts pooled to create one placebo dose group for comparison to the active dose groups • (b) each dose group compared separately with placebo • (c) Fisher's exact tests for difference in proportions between each dose level and placebo • (d) Time to restoration tested using the Kaplan-Meier method with difference in survivor functions; Log-Rank test used to compare each dose level with placebo • (e) No correction for multiple comparisons among dose groups.

[2] = Daily dosing for 7 days in four patients (Example 4); format: in vivo, human; conditions: 50, 100 and 150 mg daily, all patients
[3] = Adverse events in the single dose AF/AFL study (Example 1); format: in vivo, human
Excerpt: as §1

[4] = Daily dosing for 11 consecutive days, PK and hemodynamics (Example 2); format: in vivo, human
[5] = Preliminary studies of daily use over 7, 10 and 14 days; format: in vivo; conditions: 75, 100, 125 and 150 mg a day over 7, 10 and 14 days
Excerpt: However, control and prevention of events of cardiac arrhythmia are important to these patients to prevent future re-occurrences and the deleterious effects and morbidity.

[6] = Daily dosing for 14 days in healthy patients (Example 3); format: in vivo, human; conditions: 25, 75 and 125 mg daily for 14 days, meal 15 minutes prior to dosing
Experimental: A standardized meal was served 15 minutes prior to each dosing.

[7] = human, in vivo
Excerpt: Furthermore, steady state plasma levels are achieved within 3 days of oral dosing in some studies and up to 14 days in other studies. In human studies, the typical time is between about 3-11 days for reaching steady state status. […] This provides for an opportunity to achieve steady state plasma levels for restoration or maintenance of normal sinus rhythm in mammals.

Fc1ccc(C(OCCN2CCN(CCCc3ccccc3)CC2)c2ccc(F)cc2)cc1 [vanoxerine, 1-[2-[bis(4-fluorophenyl)methoxy]ethyl]-4-(3-phenylpropyl)piperazine]
Percent conversion to sinus rhythm ([1]; 200 mg single dose, 0-4 hr): 18%
Percent conversion to sinus rhythm ([1]; 200 mg single dose, 0-8 hr): 45%
Percent conversion to sinus rhythm ([1]; 200 mg single dose, 0-24 hr): 59%
Conversion of Atrial Flutter, % ([1]; 200 mg): 50%
Percent conversion to sinus rhythm ([1]; 300 mg single dose, 0-4 hr): 40%
Percent conversion to sinus rhythm ([1]; 300 mg single dose, 0-8 hr): 52%
Percent conversion to sinus rhythm ([1]; 300 mg single dose, 0-24 hr): 64%
Conversion of Atrial Flutter, % ([1]; 300 mg): 75%
Percent conversion to sinus rhythm ([1]; 400 mg single dose, 0-4 hr): 52%
Percent conversion to sinus rhythm ([1]; 400 mg single dose, 0-8 hr): 76%
Percent conversion to sinus rhythm ([1]; 400 mg single dose, 0-24 hr): 84%
Conversion of Atrial Flutter, % ([1]; 400 mg): 75%
Conversion to sinus rhythm ([1]; all doses of vanoxerine, at about 7 hours): greater than 40%
Conversion to sinus rhythm ([1]; all doses, at 12 hours): greater than 50%
Conversion to sinus rhythm ([1]; all doses, at about 16 hours): ~60%
Time to steady state levels [2]: within one week
Number of adverse events reported ([3]; 200 mg): 8 AEs
Subjects reporting adverse events, N (%) ([3]; 200 mg (22 subjects)): 4 (18%) subjects
Number of adverse events reported ([3]; 300 mg): 12 AEs
Subjects reporting adverse events, N (%) ([3]; 300 mg (25 subjects)): 7 (28%) subjects
Number of adverse events reported ([3]; 400 mg): 23 AEs
Subjects reporting adverse events, N (%) ([3]; 400 mg (25 subjects)): 10 (40%) subjects
Tolerability ([3]; 200, 300 and 400 mg single doses): well tolerated at all doses
1:1 AFL post dose ([3]; all doses): No 1:1 AFL seen post dose in any subject
Serious adverse events, all doses ([3]; all doses, neither related to the study drug): two
Proarrhythmia ([3]; single doses 200-400 mg): absence of proarrhythmia
Plasma levels ([4]; 25 mg daily): not detectable after 8 hours
PK linearity ([4]; 50, 75 and 100 mg doses): linear and dose proportional
Plasma levels ([4]; 50, 75 and 100 mg doses): detectable at 24 hours
Time at which steady state was reached ([4]; 50, 75 and 100 mg doses): ≤ 8 days
Heart rate and systolic blood pressure ([4]; 75 and 100 mg doses): increased slightly in most subjects
Heart rate and systolic blood pressure [5]: may lead to increased heart rate and systolic blood pressure
Adverse events [6]: No significant adverse events
Time for reaching steady state status [7]: 3 to 11 days
